According to patent publication USRE48461E1, “Modulation of androgen receptor expression” (Ionis Pharmaceuticals, Inc., priority 2012, dated 2021):

Legend:
Type in all cases: cell-based, human
22RV1 cells = experiment: 22RV1 cell proliferation with/without DHT (MTT); settings: 5 days; for Percent inhibition of 22RV1 cell proliferation: RNAiMAX
Description: 22RV1cells were plated at 1,500 cells per well. […] Separate sets of cells, also treated with each of the antisense oligonucleotides, were treated with DHT added on day 1 at a final concentration of 1 nM. After a treatment period of 5 days, the proliferative ability of the cancer cells was measured using the standard MTT assay. Results are presented in Table 69 as percent inhibition of proliferation, relative to non-treated cells.

PSA mRNA [1] = experiment: PSA expression in LNCaP cells (complete, CSS+DHT medium); settings: for Percent inhibition of PSA expression in LNCaP cells cultured in CSS + DHT medium: CSS + DHT (1 nM) medium, 48 hrs; for Percent inhibition of PSA expression in LNCaP cells cultured in complete medium: 48 hours
Description: (§1) Cells were plated at 1,000 cells per well. […] ISIS 549148 was included as a negative control. […] After an incubation period of 48 hours, RNA levels of AR, PSA and TMPRSS2 were measured.
(§2) Cells were plated at 2,000 cells per well and cultured in phenol red-free RPMI supplemented with 5% charcoal stripped serum (Gibco) media for 16 hours. […] ISIS 549148 was included as a negative control. […] After an incubation period of 4 hrs, DHT was added to the medium to a final concentration of 1 nM as indicated. RNAs were collected 48 hrs later and levels of AR, PSA and TMPRSS2 were measured. In the absence of DHT, AR expression in LNCaP cells was 95%, PSA expression was 7% and TMPRSS2 expression was 24% compared to the untreated control.

TMPRSS2 mRNA [2] = experiment: TMPRSS2 expression in LNCaP cells (complete, CSS+DHT medium); settings: for Percent inhibition of TMPRSS2 expression in LNCaP cells cultured in CSS + DHT medium: CSS + DHT (1 nM) medium, 48 hrs; for Percent inhibition of TMPRSS2 expression in LNCaP cells cultured in complete medium: 48 hours
Description: as §1, §2

C4-2 cells = experiment: C4-2 cell proliferation (complete or CSS+DHT medium); settings: 5 days; for Proliferation (% untreated control): C4-2 cells
Description: After a treatment period of 5 days in complete medium or CSS+1 nM DHT medium, the proliferative capacity of the cancer cells was measured with using CellTiter 96® AQueous One Solution or CellTiter-Glo® Cell Proliferation kit (Promega), following the manufacturer's instructions. […] The proliferative capacity of cells cultured in CSS medium without DHT is 17% of untreated control levels.

C4-2B cells = experiment: C4-2B cell proliferation (complete or CSS+DHT medium; Example 30); settings: 5 days; for Proliferation (% untreated control): C4-2B cells
Description: After a treatment period of 5 days in complete medium or CSS+1 nM DHT medium, the proliferative capacity of the cancer cells was measured with using CellTiter 96® AQueous One or CellTiter-Glo® Solution Cell Proliferation kit (Promega), following the manufacturer's instructions.

full length AR mRNA = experiment: Full-length AR RNA in VCaP cells (complete, CSS+DHT medium); settings: RNAiMax, 48 hrs
Description: Cells were plated at 10,000 cells per well. […] After an incubation period of 48 hrs, RNA levels of full length AR, the V7 variant, PSA and TMPRSS2 were measured.
After an incubation period of 48 hrs, RNA levels of full length AR, the V7 variant, PSA and TMPRSS2 were measured. The data is presented in Tables 108 expressed as percent expression of gene levels compared to the untreated control.
Cells were plated at 15,000 cells per well and cultured in CSS media for 16 hours. […] After 4 hrs, 1 nM DHT was added. […] After an incubation period of 48 hrs, RNA levels of AR, PSA and TMPRSS2 were measured.

PSA mRNA [3] = experiment: PSA expression in 22RV1 cells; settings: RNAiMax, 48 hrs
Description: (§3) Cells were plated at 1,000 cells per well. […] After an incubation period of 48 hrs, RNA levels of full length AR, the V7 variant, PSA and TMPRSS2 were measured.
(§4) After an incubation period of 48 hrs, RNA levels of full length AR, the V7 variant, PSA and TMPRSS2 were measured.
(§5) Cells were plated at 2,000 cells per well and cultured in CSS media for 16 hours. […] After 4 hrs, 1 nM DHT was added. […] After an incubation period of 48 hrs, RNA levels of AR, AR V7 variant, PSA and TMPRSS2 were measured.

TMPRSS2 mRNA [4] = experiment: TMPRSS2 expression in 22RV1 cells; settings: RNAiMax, 48 hrs
Description: as §3, §4, §5

[5] = complete medium or CSS+1 nM DHT

For “TGATTTAATGGTTGCA [ISIS 569236] (cEt/MOE gapmer chemistry, further chemistry not given here) [targets intron 1]”, the “Percent inhibition of 22RV1 cell proliferation” value (22RV1 cells; +DHT (1 nM), ASO 1.34 nM) was 0%, the “Percent inhibition of 22RV1 cell proliferation” value (22RV1 cells; +DHT (1 nM), ASO 4.0 nM) was 6% and the “Percent inhibition of 22RV1 cell proliferation” value (22RV1 cells; +DHT (1 nM), ASO 13.4 nM) was 32%. The “Percent inhibition of 22RV1 cell proliferation” value (22RV1 cells; +DHT (1 nM), ASO 40.0 nM) was 56%, the 22RV1 cell proliferation (22RV1 cells; with or without 1 nM DHT) was “significantly inhibited prostate cancer cell proliferation even in the presence of AR activator, DHT, compared to the control” and the “Percent inhibition of 22RV1 cell proliferation” value (22RV1 cells; −DHT, ASO 1.34 nM) was 0%. For the same sequence, the “Percent inhibition of 22RV1 cell proliferation” value (22RV1 cells; −DHT, ASO 4.0 nM) was 18%, the “Percent inhibition of 22RV1 cell proliferation” value (22RV1 cells; −DHT, ASO 13.4 nM) was 47% and the “Percent inhibition of 22RV1 cell proliferation” value (22RV1 cells; −DHT, ASO 40.0 nM) was 64%. For the same sequence, the “Percent inhibition of PSA expression in LNCaP cells cultured in CSS + DHT medium” value (PSA mRNA [1]; 0.04 μM) was 4%, the “Percent inhibition of PSA expression in LNCaP cells cultured in CSS + DHT medium” value (PSA mRNA [1]; 0.2 μM) was 11% and the “Percent inhibition of PSA expression in LNCaP cells cultured in CSS + DHT medium” value (PSA mRNA [1]; 1 μM) was 45%. The “Percent inhibition of PSA expression in LNCaP cells cultured in CSS + DHT medium” value (PSA mRNA [1]; 5.0 μM) was 59%, the “Percent inhibition of PSA expression in LNCaP cells cultured in complete medium” value (PSA mRNA [1]; 0.04 μM) was 0% and the “Percent inhibition of PSA expression in LNCaP cells cultured in complete medium” value (PSA mRNA [1]; 0.2 μM) was 19%. The “Percent inhibition of PSA expression in LNCaP cells cultured in complete medium” value (PSA mRNA [1]; 1 μM) was 63%, the “Percent inhibition of PSA expression in LNCaP cells cultured in complete medium” value (PSA mRNA [1]; 5.0 μM) was 81% and the “Percent inhibition of TMPRSS2 expression in LNCaP cells cultured in CSS + DHT medium” value (TMPRSS2 mRNA [2]; 0.04 μM) was 6%. For the same sequence, the “Percent inhibition of TMPRSS2 expression in LNCaP cells cultured in CSS + DHT medium” value (TMPRSS2 mRNA [2]; 0.2 μM) was 8%, the “Percent inhibition of TMPRSS2 expression in LNCaP cells cultured in CSS + DHT medium” value (TMPRSS2 mRNA [2]; 1 μM) was 40% and the “Percent inhibition of TMPRSS2 expression in LNCaP cells cultured in CSS + DHT medium” value (TMPRSS2 mRNA [2]; 5.0 μM) was 50%. For the same sequence, the “Percent inhibition of TMPRSS2 expression in LNCaP cells cultured in complete medium” value (TMPRSS2 mRNA [2]; 0.04 μM) was 0%, the “Percent inhibition of TMPRSS2 expression in LNCaP cells cultured in complete medium” value (TMPRSS2 mRNA [2]; 0.2 μM) was 5% and the “Percent inhibition of TMPRSS2 expression in LNCaP cells cultured in complete medium” value (TMPRSS2 mRNA [2]; 1 μM) was 40%. For the same sequence, the “Percent inhibition of TMPRSS2 expression in LNCaP cells cultured in complete medium” value (TMPRSS2 mRNA [2]; 5.0 μM) was 48%, the “Proliferation (% untreated control)” value (C4-2 cells; CSS + DHT medium, 0.04 μM) was 99 % untreated control and the “Proliferation (% untreated control)” value (C4-2 cells; CSS + DHT medium, 0.2 μM) was 99 % untreated control. The “Proliferation (% untreated control)” value (C4-2 cells; CSS + DHT medium, 1 μM) was 88 % untreated control, the “Proliferation (% untreated control)” value (C4-2 cells; CSS + DHT medium, 5.0 μM) was 51 % untreated control and the “Proliferation (% untreated control)” value (C4-2 cells; complete medium, 0.04 μM) was 103 % untreated control. The “Proliferation (% untreated control)” value (C4-2 cells; complete medium, 0.2 μM) was 81 % untreated control, the “Proliferation (% untreated control)” value (C4-2 cells; complete medium, 1 μM) was 57 % untreated control and the “Proliferation (% untreated control)” value (C4-2 cells; complete medium, 5.0 μM) was 58 % untreated control. For the same sequence, the “proliferation of C4-2 cells” value (C4-2 cells; [5]) was “reduced proliferation of the cells in a dose dependent manner compared to the control”, the “Proliferation (% untreated control)” value (C4-2B cells; CSS + DHT medium, 0.04 μM) was 109 % untreated control and the “Proliferation (% untreated control)” value (C4-2B cells; CSS + DHT medium, 0.2 μM) was 109 % untreated control. For the same sequence, the “Proliferation (% untreated control)” value (C4-2B cells; CSS + DHT medium, 1 μM) was 67 % untreated control, the “Proliferation (% untreated control)” value (C4-2B cells; CSS + DHT medium, 5.0 μM) was 39 % untreated control and the “Proliferation (% untreated control)” value (C4-2B cells; complete medium, 0.04 μM) was 98 % untreated control. The “Proliferation (% untreated control)” value (C4-2B cells; complete medium, 0.2 μM) was 64 % untreated control, the “Proliferation (% untreated control)” value (C4-2B cells; complete medium, 1 μM) was 55 % untreated control and the “Proliferation (% untreated control)” value (C4-2B cells; complete medium, 5.0 μM) was 48 % untreated control. For the same sequence, the “proliferation of C4-2B cells” value (C4-2B cells; [5]) was “reduced proliferation of the cells in a dose dependent compared to the control”, the “Percent inhibition of full-length AR” value (full length AR mRNA; CSS medium, 1.34 nM) was 23% and the “Percent inhibition of full-length AR” value (full length AR mRNA; CSS medium, 4.0 nM) was 21%. For the same sequence, the “Percent inhibition of full-length AR” value (full length AR mRNA; CSS medium, 13.4 nM) was 38%, the “Percent inhibition of full-length AR” value (full length AR mRNA; CSS medium, 40 nM) was 35% and the “Percent inhibition of full-length AR” value (full length AR mRNA; complete medium, 1.34 nM) was 0%. For the same sequence, the “Percent inhibition of full-length AR” value (full length AR mRNA; complete medium, 4.0 nM) was 41%, the “Percent inhibition of full-length AR” value (full length AR mRNA; complete medium, 13.4 nM) was 49% and the “Percent inhibition of full-length AR” value (full length AR mRNA; complete medium, 40 nM) was 74%. The “Percent inhibition of PSA expression” value (PSA mRNA [3]; CSS + DHT medium, 1.34 nM) was 28%, the “Percent inhibition of PSA expression” value (PSA mRNA [3]; CSS + DHT medium, 4.0 nM) was 49% and the “Percent inhibition of PSA expression” value (PSA mRNA [3]; CSS + DHT medium, 13.4 nM) was 70%. For the same sequence, the “Percent inhibition of PSA expression” value (PSA mRNA [3]; complete medium, 1.34 nM) was 0%, the “Percent inhibition of PSA expression” value (PSA mRNA [3]; complete medium, 4.0 nM) was 17% and the “Percent inhibition of PSA expression” value (PSA mRNA [3]; complete medium, 13.4 nM) was 25%. For the same sequence, the “Percent inhibition of PSA expression” value (PSA mRNA [3]; complete medium, 40 nM) was 7%, the “Percent inhibition of TMPRSS2 expression” value (TMPRSS2 mRNA [4]; CSS + DHT medium, 1.34 nM) was 27% and the “Percent inhibition of TMPRSS2 expression” value (TMPRSS2 mRNA [4]; CSS + DHT medium, 4.0 nM) was 50%. The “Percent inhibition of TMPRSS2 expression” value (TMPRSS2 mRNA [4]; CSS + DHT medium, 13.4 nM) was 75%, the “Percent inhibition of TMPRSS2 expression” value (TMPRSS2 mRNA [4]; complete medium, 1.34 nM) was 0% and the “Percent inhibition of TMPRSS2 expression” value (TMPRSS2 mRNA [4]; complete medium, 4.0 nM) was 13%. For the same sequence, the “Percent inhibition of TMPRSS2 expression” value (TMPRSS2 mRNA [4]; complete medium, 13.4 nM) was 21% and the “Percent inhibition of TMPRSS2 expression” value (TMPRSS2 mRNA [4]; complete medium, 40 nM) was 36%.
